# pIC50: −log10 of the molar value.
# Tests used:
# Type in all cases: biochemical
# [1] = molecular target: T1, PI3K alfa (Homo sapiens, UniProt P42336); experiment: PI3 kinase assay (Kinase-Glo luminescence), PI3K alfa; conditions: Enzymatic Data; read-out: PI3K alfa IC50 [umol]
# T1 construct: for the p110-a subunit (with a deletion of the first 20 amino acids); His tag (C); made in house; host or cells: baculovirus; Tn5 (Trichoplusia ni) or TiniPro insect cells
# Method in brief: (§1)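 Recombinant PI3K constructs (alfa 10 nM, delta 10 nM, gamma 150 nM) with 1 μM ATP and 10 μg/mL phosphatidylinositol in Tris pH 7.5, MgCl2, NaCl, CHAPS, DTT; 60 min (alfa, delta) or 120 min (gamma) at room temperature. ATP depletion read by Kinase-Glo luminescence; IC50 from 4-parameter logistic fit over 8 concentrations.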
# [2] = molecular target: T2, PI3K beta (Homo sapiens, UniProt P42338); experiment: PI3 kinase assay (Kinase-Glo luminescence), PI3K beta; conditions: Enzymatic Data; read-out: PI3K beta IC50 [umol]
# T2 construct: for the full-length p110-b subunit are generated and fused by overlapping PCR; His tag (C); made in house; host or cells: baculovirus; Tn5 (Trichoplusia ni) or TiniPro insect cells
# T2 sequence (P42338 with tags, fused parts or gaps limits assumed): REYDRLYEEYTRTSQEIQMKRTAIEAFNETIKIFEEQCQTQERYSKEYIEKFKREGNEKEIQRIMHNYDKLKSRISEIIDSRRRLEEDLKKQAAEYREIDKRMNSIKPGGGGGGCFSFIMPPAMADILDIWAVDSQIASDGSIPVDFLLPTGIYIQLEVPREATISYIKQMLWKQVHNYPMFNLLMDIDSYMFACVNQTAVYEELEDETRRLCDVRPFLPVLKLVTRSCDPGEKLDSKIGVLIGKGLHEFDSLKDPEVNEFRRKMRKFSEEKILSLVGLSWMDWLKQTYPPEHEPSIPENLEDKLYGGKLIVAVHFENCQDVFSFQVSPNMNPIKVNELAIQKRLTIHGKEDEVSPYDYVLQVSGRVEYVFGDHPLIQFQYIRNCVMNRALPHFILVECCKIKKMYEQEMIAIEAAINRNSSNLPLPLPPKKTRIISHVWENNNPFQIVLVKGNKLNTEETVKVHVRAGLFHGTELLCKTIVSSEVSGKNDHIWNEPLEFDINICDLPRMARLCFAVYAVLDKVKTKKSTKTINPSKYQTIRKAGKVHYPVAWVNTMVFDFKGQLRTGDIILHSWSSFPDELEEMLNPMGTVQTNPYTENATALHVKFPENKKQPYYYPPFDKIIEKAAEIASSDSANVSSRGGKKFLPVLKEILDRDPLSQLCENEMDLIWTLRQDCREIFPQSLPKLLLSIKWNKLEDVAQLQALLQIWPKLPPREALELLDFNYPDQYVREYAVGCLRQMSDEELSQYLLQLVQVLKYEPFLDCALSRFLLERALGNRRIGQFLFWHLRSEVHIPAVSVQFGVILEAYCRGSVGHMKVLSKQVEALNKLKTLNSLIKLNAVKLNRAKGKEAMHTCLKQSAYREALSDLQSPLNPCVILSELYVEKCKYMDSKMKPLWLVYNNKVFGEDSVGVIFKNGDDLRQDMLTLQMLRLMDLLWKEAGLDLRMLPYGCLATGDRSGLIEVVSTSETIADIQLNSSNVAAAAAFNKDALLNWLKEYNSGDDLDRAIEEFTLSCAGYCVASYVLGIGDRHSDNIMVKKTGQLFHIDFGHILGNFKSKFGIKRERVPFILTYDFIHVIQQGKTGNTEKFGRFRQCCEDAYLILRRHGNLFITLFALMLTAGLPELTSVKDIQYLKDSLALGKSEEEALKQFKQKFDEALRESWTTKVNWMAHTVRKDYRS
# Method in brief: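 PI3Kβ (25 nM, BV-949) with 10 μg/mL phosphatidylinositol in Tris pH 7.5/MgCl2/NaCl/CHAPS/DTT buffer; reaction started with 1 μM ATP, 60 min at room temperature. ATP depletion read by Kinase-Glo luminescence; 8-point dilutions, IC50 by four-parameter logistic fit.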
# [3] = molecular target: T3, PI3K delta (Homo sapiens, UniProt O00329); experiment: PI3 kinase assay (Kinase-Glo luminescence), PI3K delta; conditions: Enzymatic Data; read-out: PI3K delta IC50 [umol]
# T3 construct: for the full-length p110-d subunit are generated and fused by overlapping PCR; His tag (C); made in house; host or cells: baculovirus; Tn5 (Trichoplusia ni) or TiniPro insect cells
# T3 sequence (O00329 with tags, fused parts or gaps limits assumed): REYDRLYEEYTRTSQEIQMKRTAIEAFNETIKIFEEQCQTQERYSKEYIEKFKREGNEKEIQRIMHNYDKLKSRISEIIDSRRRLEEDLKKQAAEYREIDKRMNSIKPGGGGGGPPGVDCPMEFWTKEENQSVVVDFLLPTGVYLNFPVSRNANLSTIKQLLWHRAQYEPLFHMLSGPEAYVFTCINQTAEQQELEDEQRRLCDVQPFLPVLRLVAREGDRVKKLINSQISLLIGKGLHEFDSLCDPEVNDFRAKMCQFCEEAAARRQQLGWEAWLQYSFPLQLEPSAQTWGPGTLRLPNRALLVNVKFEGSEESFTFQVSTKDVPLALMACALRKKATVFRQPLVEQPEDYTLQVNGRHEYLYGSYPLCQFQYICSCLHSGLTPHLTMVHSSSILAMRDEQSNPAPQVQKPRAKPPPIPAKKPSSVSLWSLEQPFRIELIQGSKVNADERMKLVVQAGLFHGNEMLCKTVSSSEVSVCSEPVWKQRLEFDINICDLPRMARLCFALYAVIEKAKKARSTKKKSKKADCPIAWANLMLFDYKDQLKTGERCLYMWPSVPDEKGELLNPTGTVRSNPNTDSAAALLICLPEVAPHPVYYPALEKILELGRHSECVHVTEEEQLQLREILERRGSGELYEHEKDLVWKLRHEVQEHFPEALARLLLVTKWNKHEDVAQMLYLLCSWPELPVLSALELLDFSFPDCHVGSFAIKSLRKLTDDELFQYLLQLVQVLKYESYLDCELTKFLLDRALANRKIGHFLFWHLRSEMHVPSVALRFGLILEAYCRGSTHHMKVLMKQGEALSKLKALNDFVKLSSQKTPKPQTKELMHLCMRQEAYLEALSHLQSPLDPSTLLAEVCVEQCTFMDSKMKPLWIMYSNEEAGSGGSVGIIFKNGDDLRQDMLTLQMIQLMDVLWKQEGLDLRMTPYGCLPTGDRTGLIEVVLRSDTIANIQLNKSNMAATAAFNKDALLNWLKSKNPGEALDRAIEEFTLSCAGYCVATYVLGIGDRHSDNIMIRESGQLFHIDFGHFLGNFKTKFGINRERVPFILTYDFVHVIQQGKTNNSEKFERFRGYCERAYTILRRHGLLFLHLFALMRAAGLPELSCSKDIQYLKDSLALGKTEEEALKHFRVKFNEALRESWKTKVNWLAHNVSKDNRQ
# Method in brief: as §1
# [4] = molecular target: T4, PI3K gamma (Homo sapiens, UniProt P48736); experiment: PI3 kinase assay (Kinase-Glo luminescence), PI3K gamma; conditions: Enzymatic Data; read-out: PI3K gamma IC50 [umol]
# T4 construct: PI3Kγ BV-950 p110g(D144aa)-C-Term His Tag; His tag (C); made in house; host or cells: construct from the Roger Williams lab (MRC LMB) in pVL1393; baculovirus; Tn5 (Trichoplusia ni) or TiniPro insect cells
# T4 sequence (P48736 144-1102 limits assumed): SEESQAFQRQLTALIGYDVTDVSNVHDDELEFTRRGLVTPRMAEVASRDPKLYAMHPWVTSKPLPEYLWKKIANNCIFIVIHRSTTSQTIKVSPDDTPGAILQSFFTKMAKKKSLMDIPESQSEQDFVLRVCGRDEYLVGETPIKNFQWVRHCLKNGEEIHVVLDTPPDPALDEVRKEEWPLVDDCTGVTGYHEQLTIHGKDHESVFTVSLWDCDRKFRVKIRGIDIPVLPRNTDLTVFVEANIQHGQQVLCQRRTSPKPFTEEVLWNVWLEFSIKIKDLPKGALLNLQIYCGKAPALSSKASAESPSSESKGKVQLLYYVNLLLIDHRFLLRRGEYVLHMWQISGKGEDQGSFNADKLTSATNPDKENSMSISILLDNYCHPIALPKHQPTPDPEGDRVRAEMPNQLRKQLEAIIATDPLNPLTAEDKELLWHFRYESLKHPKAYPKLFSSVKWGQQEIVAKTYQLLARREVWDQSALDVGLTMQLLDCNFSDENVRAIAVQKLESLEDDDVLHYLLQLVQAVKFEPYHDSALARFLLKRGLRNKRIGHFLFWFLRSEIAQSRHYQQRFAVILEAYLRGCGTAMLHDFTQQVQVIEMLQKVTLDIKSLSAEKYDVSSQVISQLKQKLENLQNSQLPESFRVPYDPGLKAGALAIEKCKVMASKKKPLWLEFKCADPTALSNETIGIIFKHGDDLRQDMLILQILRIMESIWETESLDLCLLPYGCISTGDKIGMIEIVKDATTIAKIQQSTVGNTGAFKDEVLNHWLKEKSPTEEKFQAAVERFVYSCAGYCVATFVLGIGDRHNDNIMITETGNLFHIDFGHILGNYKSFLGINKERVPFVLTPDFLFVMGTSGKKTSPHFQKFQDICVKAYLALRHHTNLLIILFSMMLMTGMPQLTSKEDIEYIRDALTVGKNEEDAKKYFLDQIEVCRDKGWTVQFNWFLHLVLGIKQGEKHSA
# Method in brief: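 Kinase-Glo luminescence assay with 1 μM ATP and 10 μg/mL phosphatidylinositol (final), reaction started by ATP addition. IC50 from 4-parameter logistic fit of percent inhibition at 8 compound concentrations (usually 10 down to 0.003 […]).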
# T1 sequence (P42336 with tags, fused parts or gaps limits assumed): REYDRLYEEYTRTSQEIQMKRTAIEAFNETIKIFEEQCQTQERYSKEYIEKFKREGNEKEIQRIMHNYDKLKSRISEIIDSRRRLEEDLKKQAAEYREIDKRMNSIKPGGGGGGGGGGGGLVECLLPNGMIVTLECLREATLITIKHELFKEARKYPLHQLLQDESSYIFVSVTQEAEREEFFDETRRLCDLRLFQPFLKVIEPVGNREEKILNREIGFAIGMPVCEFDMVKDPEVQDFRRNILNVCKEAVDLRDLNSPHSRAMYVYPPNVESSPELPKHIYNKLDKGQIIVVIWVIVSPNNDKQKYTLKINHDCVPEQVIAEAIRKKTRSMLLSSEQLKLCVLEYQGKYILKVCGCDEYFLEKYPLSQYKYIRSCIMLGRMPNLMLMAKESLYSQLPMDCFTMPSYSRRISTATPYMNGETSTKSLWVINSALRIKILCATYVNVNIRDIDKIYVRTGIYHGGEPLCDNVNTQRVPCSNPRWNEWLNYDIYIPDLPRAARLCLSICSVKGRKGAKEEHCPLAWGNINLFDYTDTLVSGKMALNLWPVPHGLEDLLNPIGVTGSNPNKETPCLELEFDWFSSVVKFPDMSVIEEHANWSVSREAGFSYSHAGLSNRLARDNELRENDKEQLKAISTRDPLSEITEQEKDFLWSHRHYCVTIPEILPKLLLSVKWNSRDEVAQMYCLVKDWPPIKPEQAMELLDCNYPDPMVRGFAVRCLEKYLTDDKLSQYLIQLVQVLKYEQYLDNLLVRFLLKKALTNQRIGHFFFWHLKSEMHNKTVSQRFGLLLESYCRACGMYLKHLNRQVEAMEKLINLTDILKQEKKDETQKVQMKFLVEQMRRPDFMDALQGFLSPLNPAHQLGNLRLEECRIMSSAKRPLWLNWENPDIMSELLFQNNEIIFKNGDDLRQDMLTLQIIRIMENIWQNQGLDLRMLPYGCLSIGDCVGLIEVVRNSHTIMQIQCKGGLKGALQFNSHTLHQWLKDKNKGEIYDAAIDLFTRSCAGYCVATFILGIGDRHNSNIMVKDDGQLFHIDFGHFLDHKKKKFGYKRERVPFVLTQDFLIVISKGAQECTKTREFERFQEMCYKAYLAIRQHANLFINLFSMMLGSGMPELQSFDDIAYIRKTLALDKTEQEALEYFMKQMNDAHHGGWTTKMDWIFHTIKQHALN
Structure (SMILES),pIC50 [1],pIC50 [2],pIC50 [3],pIC50 [4]
"Nc1ncc(-c2ccc3ncc(-c4ccc(C(=O)N5CCN(CCO)CC5)c(F)c4)n3n2)cc1C(F)(F)F [Example 113, {4-[6-(6-Amino-5-trifluoro-methyl-pyridin-3-yl)-imidazo [1,2-b]pyridazin-3-yl]-2-fluoro-phenyl}-[4-(2-hydroxy-ethyl)-piperazin-1-yl]-methanone]",7.96,7.17,7.89,6.26
"CN(C)CCN1CCN(C(=O)c2ccc(-c3cnc4ccc(-c5cnc(N)c(C(F)(F)F)c5)nn34)cc2)CC1 [Example 132, {4-[6-(6-Amino-5-trifluoro-methyl-pyridin-3-yl)-imidazo [1,2-b]pyridazin-3-yl]-phenyl}-[4-(2-dimethyl-amino-ethyl)-piperazin-1-yl]-methanone]",7.59,5.90,7.28,5.69
"c1cc2cc(-c3cnc4ccc(-c5ccc6c(c5)OCO6)nn34)cnc2[nH]1 [Example 178, 6-Benzo [1,3] dioxol-5-yl-3-(1H-pyrrolo [2,3-b]pyridin-5-yl)-imidazo [1,2-b] pyridazine]",6.10,5.21,6.31,< 5.04
"COc1ccc(-c2ccc3ncc(-c4cnc(N)c(C(F)(F)F)c4)n3n2)cc1 [Example 46, 5-[6-(4-Methoxy-phenyl)-imidazo[1,2 b]pyridazin-3-yl]-3 trifluoro-methyl-pyridin-2-ylamine]",5.79,5.20,5.53,< 5.04
"CNS(=O)(=O)c1ccc(-c2cnc3ccc(-c4cnc(N)c(C(F)(F)F)c4)nn23)cc1 [Example 35, 4-[6-(6-Amino-5-trifluoro-methyl-pyridin-3-yl)-imidazo [1,2-b]pyridazin-3-yl]-N-methyl-benzene-sulfon-amide]",6.91,6.73,6.77,< 5.04
"Nc1ncc(-c2cnc3ccc(-c4ccc(OCCn5cccn5)cc4)nn23)cc1C(F)(F)F [Example 92, 5-{6-[4-(2-Pyrazol-1-yl-ethoxy)-phenyl]-imidazo [1,2-b]pyridazin-3-yl}-3-trifluoro-methyl-pyridin-2-ylamine]",6.24,5.39,5.91,< 5.04
"Nc1ncc(-c2ccc3ncc(-c4ccc(C(=O)NCCN5CCOCC5)cc4F)n3n2)cc1C(F)(F)F [Example 151, 4-[6-(6-Amino-5-trifluoro-methyl-pyridin-3-yl)-imidazo [1,2-b]pyridazin-3-yl]-3-fluoro-N-(2-morpholin-4-yl-ethyl)-benzamide]",8.10,6.85,7.57,6.02
"Nc1ncc(-c2ccc3ncc(-c4ccc(C(=O)N5CCN(CC(=O)N6CCOCC6)CC5)cc4)n3n2)cc1C(F)(F)F [Example 144, 2-(4-{4-[6-(6-Amino-5-trifluoro-methyl-pyridin-3-yl)-imidazo [1,2-b]pyridazin-3-yl]-benzoyl}-piperazin-1-yl)-1-morpholin-4-yl-ethanone]",6.76,6.27,6.58,5.23
"Nc1ncc(-c2ccc3ncc(-c4ccc(C(=O)NCCN5CCOCC5)c(F)c4)n3n2)cc1C(F)(F)F [Example 99, 4-[6-(6-Amino-5-trifluoro-methyl-pyridin-3-yl)-imidazo [1,2-b]pyridazin-3-yl]-2-fluoro-N-(2-morpholin-4-yl-ethyl)-benzamide]",8.05,7.09,7.82,6.23
"COc1cc(-c2cnc3ccc(-c4cnc(N)c(C(F)(F)F)c4)nn23)c(F)cc1C(=O)NCCCN1CCOCC1 [Example 159, 4-[6-(6-Amino-5-trifluoro-methyl-pyridin-3-yl)-imidazo [1,2-b]pyridazin-3-yl]-5-fluoro-2-methoxy-N-(3-morpholin-4-yl-propyl)-benzamide]",7.74,7.44,7.89,6.21
"Nc1ccc(-c2cnc3ccc(-c4ccc(OCCCNC(=O)C5CC5)cc4)nn23)cn1 [Example 129, Cyclo-propane-carboxylic acid (3-{4-[3-(6-amino-pyridin-3-yl)-imidazo [1,2-b]pyridazin-6-yl]-phenoxy}-propyl)-amide]",6.65,5.38,6.17,5.69
"COc1cc(-c2cnc3ccc(-c4cnc(N)c(C(F)(F)F)c4)nn23)ccc1C(=O)NCCN1CCOCC1 [Example 115, 4-[6-(6-Amino-5-trifluoro-methyl-pyridin-3-yl)-imidazo [1,2-b]pyridazin-3-yl]-2-methoxy-N-(2-morpholin-4-yl-ethyl)-benzamide]",8.05,7.11,7.66,6.40

# The remaining lines, values ahead:
pIC50 [1],pIC50 [2],pIC50 [3],pIC50 [4],Structure (SMILES)
7.74,6.77,8.15,6.28,"CC(=O)N1CCN(C(=O)c2ccc(-c3cnc4ccc(-c5cnc(N)c(C(F)(F)F)c5)nn34)cc2)CC1 [Example 82, 1-(4-{4-[6-(6-Amino-5-trifIuoro-methyl-pyridin-3-yl)-imidazo [1,2-b]pyridazin-3-yl]-benzoyl}-piperazin-1-yl)-ethanone]"
6.99,6.14,6.84,5.88,"COc1ccc(-c2ccc3ncc(-c4ccc(N)nc4)n3n2)cc1OC [Example 34, 5-[6-(3,4-Dimethoxy-phenyl)-imidazo [1,2-b]pyridazin-3-yl]-pyridin-2-ylamine]"
8.10,6.75,8.22,6.39,"COc1cc(-c2cnc3ccc(-c4cnc(N)c(C(F)(F)F)c4)nn23)ccc1C(=O)N1CCN(CCN2CCOCC2)CC1 [Example 118, {4-[6-(6-Amino-5-trifluoro-methyl-pyridin-3-yl)-imidazo [1,2-b]pyridazin-3-yl]-2-methoxy-phenyl}-[4-(2-morpholin-4-yl-ethyl)-piperazin-1-yl]-methanone]"
6.30,5.33,5.96,5.12,"O=C1CCCN1CCOc1ccc(-c2ccc3ncc(-c4cnc5[nH]ccc5c4)n3n2)cc1F [Example 96, 1-(2-{2-Fluoro-4-[3-(1H-pyrrolo [2,3-b]pyridin-5-yl)-imidazo [1,2-b]pyridazin-6-yl]-phenoxy)-ethyl)-pyrrolidin-2-one]"
7.54,8.00,7.74,5.91,"CNc1ncc(-c2cnc3ccc(-c4cnc(N)c(C(F)(F)F)c4)nn23)cn1 [Example 87, {5-[6-(6-Amino-5-trifluoro-methyl-pyridin-3-yl)-imidazo [1,2-b]pyridazin-3-yl]-pyrimidin-2-yl)-methylamine]"
7.92,6.21,7.85,6.02,"Nc1ncc(-c2ccc3ncc(-c4ccc(C(=O)N5CCN(Cc6cccnc6)CC5)c(F)c4)n3n2)cc1C(F)(F)F [Example 112, {4-[6-(6-Amino-5-trifluoro-methyl-pyridin-3-yl)-imidazo [1,2-b]pyridazin-3-yl]-2-fluoro-phenyl}-(4-pyridin-3-ylmethyl-piperazin-1-yl)-methanone]"
